In US20160324863A1, “TARGETED CANCER TREATMENT BY HSP90 INHIBITORS GANETESPIB AND NVP-AUY922” (SYNTA PHARMACEUTICALS CORP., priority 2014, published 2016):
Where two headings read alike, the source gives them in different places.

Experiments:
HT29 cells [1] = test: LC-MS/MS bioanalysis of ganetespib in HT29 cells; type: in vitro ADME, human; conditions: 1 μM ganetespib, 8 hr
Protocol: (§1) Colon cancer cells were treated with 1 μM ganetespib for 5, 15, 30, 60 or 480 minutes. At each time point, media was collected and cell lysates were generated for subsequent bioanalysis of secreted and intracellular concentrations of ganetespib and its glucuronides. Equal protein concentrations from cell lysates or equal volumes of media were used for the bioanalysis. Samples were extracted by protein precipitation and analyzed by LC-MS/MS using an Agilent 1100 HPLC interfaced to an API 4000 tandem mass spectrometer (Applied Biosystems). A Phenomenex Kinetex 2.6 μm C18 (30×2.1 mm) column was used with a run time of 3.5 min per sample.

[2] = test system: LB831-BLC bladder cancer cell line; test: CellTiter-Glo viability assay, LB831-BLC; type: cell-based; conditions: FGFR3 status WT, 72 hours, read-out: Ganetespib IC50
Protocol: (§2) Cellular viability was assessed using the CellTiter-Glo Luminescent Cell Viability Assay (Promega) according to manufacturer protocols. Bladder cancer cell lines were seeded into 96-well plates based on optimal growth rates determined empirically for each line. Twenty-four hours after plating, cells were dosed with graded concentrations of ganetespib for 72 hours. CellTiter-Glo was added (50% v/v) to the cells, and the plates incubated for 10 minutes prior to luminescent detection in a SpectraMax Plus 384 microplate reader (Molecular Devices). Data were normalized to percent of control and IC50 values used to determine the sensitivity of each line. For the comparative analyses with ganetespib and BGJ398, RT112 cells were treated with graded concentrations of each compound for 72 hours and cell viability measured as above. For the evaluation of apoptotic induction, caspase activity was assessed using the Caspase-Glo 3/7 assay (Promega) according to manufacturer protocols. Twenty-four hours after plating, RT112 cells were treated with graded concentrations of ganetespib for 24 hours. Caspase-Glo was added to cells (50% v/v) and the plates incubated for 1 hour prior to luminescent detection.

[3] = test system: HT-1376 bladder cancer cell line; test: CellTiter-Glo viability assay, HT-1376; type: cell-based; conditions: Homo sapiens, FGFR3 status WT, 72 hours, read-out: Ganetespib IC50
Protocol: as §2

[4] = test system: UM-UC3 bladder cancer cell line; test: CellTiter-Glo viability assay, UM-UC3; type: cell-based; conditions: Homo sapiens, UMUC3, FGFR3 status WT, 72 hours, read-out: Ganetespib IC50
Protocol: as §2

[5] = test system: SW780 bladder cancer cell line; test: CellTiter-Glo viability assay, SW780; type: cell-based; conditions: Homo sapiens, FGFR3 status FGFR3-BAIAP2L1, 72 hours, read-out: Ganetespib IC50
Protocol: as §2

SW780 cells = test: LC-MS/MS bioanalysis of ganetespib and glucuronidated metabolites in SW780 cells; type: in vitro ADME; conditions: 1 μM ganetespib, by 24 hours
Protocol: (§3) In the first set of experiments, RT112 and SW780 cells were treated with graded concentrations of ganetespib or 17-DMAG (10-1000 nM) for 1 and 24 hours. Cell lysates were prepared for measurement of intracellular concentrations of the respective HSP90 inhibitors. RT112 and SW780 cells were also treated with 1 μM ganetespib for 15 minutes, 1, 4, 8 and 24 hours. At each time point cell lysates were prepared and media was collected for analysis of intracellular and secreted concentrations of ganetespib and its glucuronidated metabolites. Bioanalysis was performed on equal protein concentrations from cell lysates or equal volumes of media. All samples were ultimately extracted by protein precipitation and analyzed by LC-MS/MS using an Agilent 1100 HPLC interfaced to an API 4000 tandem mass spectrometer (Applied Biosystems). A Phenomenex Kinetex 2.6 μm C18 (30×2.1 mm) column was used with a run time of 3.5 min per sample.

HT29 cells [6] = test: Cell viability assay, HT29 colorectal cancer cells; conditions: Homo sapiens, HT-29, read-out: IC50 based on cell viability
Protocol: 24 hours after transfection, […] were seeded in triplicate in 96-well plates one day before treatment. Cells were treated with inhibitors and drugs for 48 hours and subjected to the CellTiterGlo Luminescent Cell Viability assay (Promega, Madison Wis., USA).

SW1463 cells = test: LC-MS/MS bioanalysis of ganetespib in SW1463 cells; type: in vitro ADME, human; conditions: 1 μM ganetespib, 8 hr
Protocol: as §1

[7] = test system: 639-V bladder cancer cell line; test: CellTiter-Glo viability assay, 639-V; type: cell-based; conditions: Homo sapiens, FGFR3 status R248C, 72 hours, read-out: Ganetespib IC50
Protocol: as §2

[8] = test system: SW-1710 bladder cancer cell line; test: CellTiter-Glo viability assay, SW-1710; type: cell-based; conditions: Homo sapiens, SW1710, FGFR3 status WT, 72 hours, read-out: Ganetespib IC50
Protocol: as §2

[9] = test system: J82 bladder cancer cell line; test: CellTiter-Glo viability assay, J82; type: cell-based; conditions: FGFR3 status K652E, 72 hours, read-out: Ganetespib IC50
Protocol: as §2

[10] = test system: SCaBER bladder cancer cell line; test: CellTiter-Glo viability assay, SCaBER; type: cell-based; conditions: Homo sapiens, FGFR3 status WT, 72 hours, read-out: Ganetespib IC50
Protocol: as §2

[11] = test system: TCCSUP bladder cancer cell line; test: CellTiter-Glo viability assay, TCCSUP; type: cell-based; conditions: Homo sapiens, TCC-SUP, FGFR3 status WT, 72 hours, read-out: Ganetespib IC50
Protocol: as §2

[12] = test system: DHS1 bladder cancer cell line; test: CellTiter-Glo viability assay, DHS1; type: cell-based; conditions: FGFR3 status WT, 72 hours, read-out: Ganetespib IC50
Protocol: as §2

[13] = test system: MGH-U3 bladder cancer cell line; test: CellTiter-Glo viability assay, MGH-U3; type: cell-based; conditions: FGFR3 status Y375C, 72 hours, read-out: Ganetespib IC50
Protocol: as §2

[14] = test system: BFTC bladder cancer cell line; test: CellTiter-Glo viability assay, BFTC; type: cell-based; conditions: FGFR3 status WT, 72 hours, read-out: Ganetespib IC50
Protocol: as §2

[15] = test system: 5637 bladder cancer cell line; test: CellTiter-Glo viability assay, 5637; type: cell-based; conditions: FGFR3 status WT, 72 hours, read-out: Ganetespib IC50
Protocol: as §2

RT112 cells = test: LC-MS/MS bioanalysis of ganetespib and glucuronidated metabolites in RT112 cells; type: in vitro ADME; conditions: 1 μM ganetespib, 24-hour time course
Protocol: as §3

[16] = test system: 97-7 bladder cancer cell line; test: CellTiter-Glo viability assay, 97-7; type: cell-based; conditions: FGFR3 status S249C, 72 hours, read-out: Ganetespib IC50
Protocol: as §2

[17] = test system: T24 bladder cancer cell line; test: CellTiter-Glo viability assay, T24; type: cell-based; conditions: FGFR3 status WT, 72 hours, read-out: Ganetespib IC50
Protocol: as §2

[18] = test system: RT112 bladder cancer cell line; test: CellTiter-Glo viability assay, RT112; type: cell-based; conditions: Homo sapiens
Protocol: as §2

[19] = test system: HT-1197 bladder cancer cell line; test: CellTiter-Glo viability assay, HT-1197; type: cell-based; conditions: Homo sapiens, HT1197, FGFR3 status WT, 72 hours, read-out: Ganetespib IC50
Protocol: as §2

[20] = test system: RT4 bladder cancer cell line; test: CellTiter-Glo viability assay, RT4; type: cell-based
Protocol: as §2

Compound: CC(C)c1cc(-c2n[nH]c(=O)n2-c2ccc3c(ccn3C)c2)c(O)cc1O [ganetespib]
- ganetespib present (HT29 cells [1]): 13 nM
- IC50 [2]: 34 nM
- IC50 [3]: 21 nM
- IC50 [4]: 33 nM
- IC50 [5]: 3450 nM
- intracellular ganetespib concentrations (SW780 cells): undetectable
- IC50 (HT29 cells [6]): 2000 nM
- ganetespib present (SW1463 cells): ~190 nM
- IC50 [7]: 10 nM
- IC50 [8]: 6 nM
- IC50 [9]: 18 nM
- IC50 [10]: 10 nM
- IC50 [11]: 142 nM
- IC50 [12]: 6 nM
- IC50 [13]: 53 nM
- IC50 [14]: 17 nM
- IC50 [15]: 44 nM
- glucuronidated form of ganetespib within cells (RT112 cells): No glucuronidated form of ganetespib was detectable
- IC50 [16]: 38 nM
- IC50 [17]: 7 nM
- IC50 ([18]; RT-112, 72-hour combination viability assay, single inhibitor, read-out: approximate IC50 concentrations): ~9.6 nM
- IC50 ([18]; RT-112, FGFR3 status FGFR3-TACC3, 72 hours, read-out: Ganetespib IC50): 9 nM
- IC50 [19]: 53 nM
- IC50 ([20]; 72 hours (FIG. 8), read-out: IC50 values): > 1000 nM
- IC50 ([20]; FGFR3 status FGFR3-TACC3, 72 hours, read-out: Ganetespib IC50): 1730 nM
